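Where inhibition never reached the appropriate level, the endpoint shown equals the highest concentration tested. Otherwise, values were interpolated linearly from a five-concentration, 48-hour dose response in 96-well plates. GI50 is the concentration that inhibits growth by half.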 Activity calls are given as the source filed them. Rule as the data show it: active = GI50 up to about 1.1 µM and inactive = higher.
Experiments:
Experiment in all cases: NCI-60 cell line screen, 48 h
786-0 = tested on: 786-0
A549 = tested on: A549
EKVX = tested on: EKVX
HOP-92 = tested on: HOP-92
IGROV-1 = tested on: IGROV-1
K562 = tested on: K562
MDA-MB-231 = tested on: MDA-MB-231
MOLT-4 = tested on: MOLT-4
Malme-3M = tested on: Malme-3M
OVCAR-4 = tested on: OVCAR-4
OVCAR-5 = tested on: OVCAR-5
RPMI-8226 = tested on: RPMI-8226
SK-MEL-5 = tested on: SK-MEL-5
SK-OV-3 = tested on: SK-OV-3
SNB-19 = tested on: SNB-19
SR = tested on: SR
SW-620 = tested on: SW-620
T47D = tested on: T47D
U-251 = tested on: U-251
UO-31 = tested on: UO-31

SMILES	GI50 (786-0)	GI50 (A549)	GI50 (EKVX)	GI50 (HOP-92)	GI50 (IGROV-1)	GI50 (K562)	GI50 (MDA-MB-231)	GI50 (MOLT-4)	GI50 (Malme-3M)	GI50 (OVCAR-4)	GI50 (OVCAR-5)	GI50 (RPMI-8226)	GI50 (SK-MEL-5)	GI50 (SK-OV-3)	GI50 (SNB-19)	GI50 (SR)	GI50 (SW-620)	GI50 (T47D)	GI50 (U-251)	GI50 (UO-31)
O=c1[nH]/c(=C/c2ccc(OCc3ccccc3)cn2)c(=O)[nH]/c1=C/c1ccc([N+](=O)[O-])cc1	> 100 µM (inactive)	> 100 µM (inactive)	> 100 µM (inactive)	> 100 µM (inactive)	> 100 µM (inactive)	> 100 µM (inactive)	> 89.3 µM (inactive)	> 63.1 µM (inactive)	> 100 µM (inactive)	> 100 µM (inactive)	> 100 µM (inactive)	> 100 µM (inactive)	> 100 µM (inactive)	> 73.5 µM (inactive)	> 64.7 µM (inactive)	> 58.3 µM (inactive)	> 100 µM (inactive)	> 100 µM (inactive)	> 65.3 µM (inactive)	> 100 µM (inactive)
COc1cc2c(cc1O)[C@@H]1Cc3c(cc(OC)c(OC)c3Oc3cc4c(cc3OC)CCN(C)[C@@H]4Cc3ccc(O)cc3)[C@H](C2)N1C	36.6 µM (inactive)	> 100 µM (inactive)	> 100 µM (inactive)	37.9 µM (inactive)	82.2 µM (inactive)	20.3 µM (inactive)	43.3 µM (inactive)	31 µM (inactive)	17.1 µM (inactive)	33 µM (inactive)	> 100 µM (inactive)	27.9 µM (inactive)	15.8 µM (inactive)	> 94 µM (inactive)	> 100 µM (inactive)	13 µM (inactive)	36.6 µM (inactive)	36.1 µM (inactive)	46.5 µM (inactive)	> 84.9 µM (inactive)
CCC(C#N)N(Cc1ccc(CN(C(=O)c2ccccc2)C(C#N)CC)cc1)C(=O)c1ccccc1 (stereo not given)	19.2 µM (inactive)	20.6 µM (inactive)	22.8 µM (inactive)	13.2 µM (inactive)	18.4 µM (inactive)	13.9 µM (inactive)	23.7 µM (inactive)	15.8 µM (inactive)	31.6 µM (inactive)	17.4 µM (inactive)	37.8 µM (inactive)	14.5 µM (inactive)	12.8 µM (inactive)	23.9 µM (inactive)	27 µM (inactive)	54.6 µM (inactive)	28.5 µM (inactive)	9.02 µM (inactive)	22.6 µM (inactive)	19.7 µM (inactive)
COC(=O)c1ccccc1C1CN=NC12Cc1cc(C)ccc1C2=O (stereo not given)	> 100 µM (inactive)	> 100 µM (inactive)	> 100 µM (inactive)	43.2 µM (inactive)	> 100 µM (inactive)	86.9 µM (inactive)	21.5 µM (inactive)	> 100 µM (inactive)	> 100 µM (inactive)	> 100 µM (inactive)	> 100 µM (inactive)	> 100 µM (inactive)	> 100 µM (inactive)	> 100 µM (inactive)	> 100 µM (inactive)	> 100 µM (inactive)	> 100 µM (inactive)	> 100 µM (inactive)	> 100 µM (inactive)	52.4 µM (inactive)
CCN1/C(=C/C#C/C(C)=C\c2sc3ccccc3[n+]2CC)Sc2ccccc21	3.13 µM (inactive)	2.92 µM (inactive)	1.33 µM (inactive)	2 µM (inactive)	1.75 µM (inactive)	0.269 µM (active)	4.42 µM (inactive)	24.4 µM (inactive)	1.11 µM (active)	7.33 µM (inactive)	3.44 µM (inactive)	0.222 µM (active)	2.02 µM (inactive)	10.6 µM (inactive)	1.91 µM (inactive)	0.811 µM (active)	0.593 µM (active)	5.13 µM (inactive)	0.948 µM (active)	2.03 µM (inactive)
COc1cc(C2C3=C(COC3=O)OC(C)(C)Oc3cc4c(cc32)OCO4)cc(OC)c1O (stereo not given)	1.12 µM (active)	0.944 µM (active)	4.12 µM (inactive)	0.392 µM (active)	0.989 µM (active)	0.383 µM (active)	0.76 µM (active)	3.11 µM (inactive)	0.746 µM (active)	> 38.8 µM (inactive)	3.58 µM (inactive)	1.62 µM (inactive)	0.246 µM (active)	0.757 µM (active)	1.33 µM (inactive)	1.01 µM (active)	0.608 µM (active)	0.498 µM (active)	0.966 µM (active)	7.1 µM (inactive)
COc1ccc(/C=N/c2nc3cc4sc(/N=C/c5ccc(OC)cc5)nc4cc3s2)cc1	> 76.4 µM (inactive)	8 µM (inactive)	21.2 µM (inactive)	> 78.9 µM (inactive)	57.4 µM (inactive)	34 µM (inactive)	98.6 µM (inactive)	8.15 µM (inactive)	> 54 µM (inactive)	57.4 µM (inactive)	> 81.5 µM (inactive)	41.8 µM (inactive)	13.6 µM (inactive)	49.7 µM (inactive)	> 100 µM (inactive)	22.9 µM (inactive)	12.8 µM (inactive)	> 40.9 µM (inactive)	54.3 µM (inactive)	55.7 µM (inactive)
